# Measurements: US11634426B2, “Selective estrogen receptor degraders” (Eli Lilly and Company, priority 2018, dated 2023)
# Target: ERα receptor (Homo sapiens (Human), UniProt P03372)
# Assay: PRα induction assay in MCF7 cells (ERα agonism)
# Assay type: cell-based
# Experimental: The purpose of the following PRα induction assay is to determine whether a test compound has agonistic activity against ERα receptor (an agonist would be expected to activate the receptor).
# Culture MCF7 (purchased from ATCC HTB-22) in DMEM media supplemented with 10% FBS, 0.01 mg/mL human insulin 1 and 1% penicillin/streptomycin antibiotics and plate the cells (prior to becoming 70% confluent) in 384-well flat-bottom plates at a density of 4,000 cells per well in 20 μL volume in DMEM phenol red free media containing 10% FBS (charcoal stripped). Incubate the cells overnight in a cell culture incubator (5% CO2, 95% relative humidity at 37° C.) and allow the cells to attach to the plate. The following day, dose the cells with test compound. Use an Echo 555 acoustic dispenser to prepare compound serial dilutions (1:3) in a range from 6 μM to 0.0003 μM. Dose the cells with the addition of the test compound (5 μL) from the serial dilution plate to the cell plate producing a final DMSO concentration of 0.2% with a final concentration of the test compound dose range between 2 and 0.0001 μM. For the maximum point use media containing 0.2% of DMSO and for the minimum point, use fulvestrant diluted at […] final concentrations in the growth media containing 0.2% DMSO. After dosing with the test compound, incubate the cell plates at 37° C. and 5% CO2 for 24 hours. Fix the cells by adding 14% para-formaldehyde (10 μL) for 30 minutes at room temperature. Wash cells once with PBS (20 μL) and incubate with PBS (20 μL) containing 0.5% (v/v) TWEEN® 20 for 1 hour. Wash cells twice with PBS (20 μL) containing 0.05% TWEEN® 20 and block with 3% BSA in PBS containing 0.05% TWEEN® 20 and 0.1% TRITON™ X-100 (20 μL/well) for 1 hour at room temperature. […]
# The following day, wash cells with PBS 0.05% TWEEN® 20 (2×20 μL) and incubate with secondary antibody (20 μL/well) (1:1000 dilution, Goat anti-rabbit IgM ALEXA FLUOR™ 488) in PBS 1% BSA for 105 minutes at room temperature. […] Scan plates with ACUMEN EXPLORER™ [Laser-scanning fluorescence microplate cytometer manufactured by TTP LABTECH LTD] to measure PRα. […]
# ERα receptor, sequence (P03372 whole entry): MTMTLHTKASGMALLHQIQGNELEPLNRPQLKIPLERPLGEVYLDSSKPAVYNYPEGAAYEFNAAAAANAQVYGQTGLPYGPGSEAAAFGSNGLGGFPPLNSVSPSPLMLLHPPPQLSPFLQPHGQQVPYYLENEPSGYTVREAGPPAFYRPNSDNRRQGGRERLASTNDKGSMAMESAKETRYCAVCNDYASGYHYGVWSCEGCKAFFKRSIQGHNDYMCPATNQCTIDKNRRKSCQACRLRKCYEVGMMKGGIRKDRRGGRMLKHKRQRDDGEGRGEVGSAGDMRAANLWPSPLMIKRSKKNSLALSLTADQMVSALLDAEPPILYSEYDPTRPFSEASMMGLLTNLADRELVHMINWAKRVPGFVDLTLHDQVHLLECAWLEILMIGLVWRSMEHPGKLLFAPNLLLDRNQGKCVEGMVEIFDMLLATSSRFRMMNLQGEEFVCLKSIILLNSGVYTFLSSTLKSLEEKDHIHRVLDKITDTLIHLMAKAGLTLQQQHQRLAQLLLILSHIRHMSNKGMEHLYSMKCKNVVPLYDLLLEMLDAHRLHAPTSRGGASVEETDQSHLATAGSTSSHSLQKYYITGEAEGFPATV
row,agonistic activity (PRα induction),SMILES
1,no significant agonistic activity,"Oc1ccc2c3c(cnc2c1)-c1ccc(C(F)(F)F)cc1OC3c1ccc(OCCN2CC(CF)C2)cc1 (single isomer, unassigned; isomer 1) [Example 1A, 5-(4-{2-[3-(Fluoromethyl)azetidin-1-yl]ethoxy}phenyl)-8-(trifluoromethyl)-5H-[1]benzopyrano[4,3-c]quinolin-2-ol, Isomer 1]"
2,no significant agonistic activity,"Oc1ccc2c3c(cnc2c1)-c1ccc(C(F)(F)F)cc1OC3c1ccc(OCCN2CC(CF)C2)cc1 (racemic) [Example 1, Racemic 5-(4-{2-[3-(Fluoromethyl)azetidin-1-yl]ethoxy}phenyl)-8-(trifluoromethyl)-5H-[1]benzopyrano[4,3-c]quinolin-2-ol]"
3,no significant agonistic activity,"Oc1ccc2c3c(cnc2c1)-c1ccc(C(F)(F)F)cc1OC3c1ccc(OCCN2CC(CF)C2)cc1 (single isomer, unassigned; isomer 2) [Example 1B, 5-(4-{2-[3-(Fluoromethyl)azetidin-1-yl]ethoxy}phenyl)-8-(trifluoromethyl)-5H-[1]benzopyrano[4,3-c]quinolin-2-ol, Isomer 2]"
